Data published in ChEMBL document CHEMBL5209579, “Flow cytometry transport assay for SLC2A4 using HEK293 JumpIN TRex SLC2A4 WT-OE cells” (2022).

Biological target: T1, Solute carrier family 2, facilitated glucose transporter member 4 (Homo sapiens, UniProt P14672)
T1 sequence (P14672 whole entry): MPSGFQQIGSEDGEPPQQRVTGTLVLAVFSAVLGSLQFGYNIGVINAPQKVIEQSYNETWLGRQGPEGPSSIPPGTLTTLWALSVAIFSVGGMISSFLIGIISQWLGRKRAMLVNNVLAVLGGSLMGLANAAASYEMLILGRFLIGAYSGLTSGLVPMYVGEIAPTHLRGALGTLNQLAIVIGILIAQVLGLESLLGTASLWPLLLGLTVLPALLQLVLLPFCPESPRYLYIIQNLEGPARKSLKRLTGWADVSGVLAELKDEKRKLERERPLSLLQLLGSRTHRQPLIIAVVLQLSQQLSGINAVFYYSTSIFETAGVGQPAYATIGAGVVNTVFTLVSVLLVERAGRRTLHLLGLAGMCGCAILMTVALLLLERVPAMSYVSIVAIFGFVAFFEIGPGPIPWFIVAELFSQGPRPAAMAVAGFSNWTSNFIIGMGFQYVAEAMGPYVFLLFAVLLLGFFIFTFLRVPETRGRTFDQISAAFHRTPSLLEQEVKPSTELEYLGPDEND
Experiment: Inhibition of the Glucose Transporter (GLUT4, SLC2A4) as assessed by a FRET based flow cytometry assay using a genetically-encoded biosensor for measuring free glucose (FLII12Pglu-700uDelta6) in HEK293 JumpIN TRex SLC2A4 WT-OE cells (PubChem AID: 1794828)
Type: functional, cell-based

| EC50 | Structure (SMILES) | IC50 |
| --- | --- | --- |
| – | O=C(Oc1cccc(F)c1OC(=O)c1cccc(O)c1)c1cccc(O)c1 | 2.5 µM |
| – | Cc1c(NC(=O)c2cc(C(N)=O)nc3cc(F)ccc23)c(C(F)(F)F)nn1Cc1ccc(C#N)cc1 [BAY-876] | 5.5 µM |
| 860 µM | OC[C@H]1OC(O)[C@H](O)[C@@H](O)[C@@H]1O (stereo partly drawn) [DEXTROSE] | – |
